From PubChem BioAssay AID1845198 (Molecular Pharmacology Branch, DTP, NCI, 2023)

System: 425362-245-T-J1 tumor spheroids, viability % test/control
Assay: Anticancer human tumor 425362-245-T-J1 patient-derived melanoma cell line growth inhibition
Conditions: spheroids with HUVEC and MSC; for IC50: curve of first compound; for viability, T/C: stronger effect = lower value
Outline: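 Complex tumor spheroids combined malignant cells with endothelial cells and mesenchymal stem cells. DNA-damaging drugs and DNA repair inhibitors were tested alone and in combination, at half-log dilutions down from clinical Cmax (top 10 microM if Cmax unknown), 0.25% DMSO final.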

[1] = second compound 30 pM, first compound 0.0316 µM
[2] = second compound 30 pM, first compound 0.1 µM
[3] = second compound 30 pM, first compound 0.316 µM
[4] = second compound 30 pM, first compound 1 µM
[5] = second compound 30 pM, first compound 3.16 µM
[6] = second compound 30 pM, first compound 10 µM
[7] = second compound 94.9 pM, first compound 0.0316 µM
[8] = second compound 94.9 pM, first compound 0.1 µM
[9] = second compound 94.9 pM, first compound 0.316 µM
[10] = second compound 94.9 pM, first compound 1 µM
[11] = second compound 94.9 pM, first compound 3.16 µM
[12] = second compound 94.9 pM, first compound 10 µM
[13] = second compound 0.0003 µM, first compound 0.0316 µM
[14] = second compound 0.0003 µM, first compound 0.1 µM
[15] = second compound 0.0003 µM, first compound 0.316 µM
[16] = second compound 0.0003 µM, first compound 1 µM
[17] = second compound 0.0003 µM, first compound 3.16 µM
[18] = second compound 0.0003 µM, first compound 10 µM
[19] = second compound 0.000949 µM, first compound 0.0316 µM
[20] = second compound 0.000949 µM, first compound 0.1 µM
[21] = second compound 0.000949 µM, first compound 0.316 µM
[22] = second compound 0.000949 µM, first compound 1 µM
[23] = second compound 0.000949 µM, first compound 3.16 µM
[24] = second compound 0.000949 µM, first compound 10 µM
[25] = second compound 0.003 µM, first compound 0.0316 µM
[26] = second compound 0.003 µM, first compound 0.1 µM
[27] = second compound 0.003 µM, first compound 0.316 µM
[28] = second compound 0.003 µM, first compound 1 µM
[29] = second compound 0.003 µM, first compound 3.16 µM
[30] = second compound 0.003 µM, first compound 10 µM
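Also: spheroids exposed to agents for 7 days.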
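For viability, T/C in this document: 100% = DMSO vehicle control viability.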

Compound | IC50 (second compound 30 pM) [nM] | IC50 (second compound 94.9 pM) [nM] | IC50 (second compound 0.0003 µM) [nM] | IC50 (second compound 0.000949 µM) [nM] | IC50 (second compound 0.003 µM) [nM] | viability, T/C [1] [%] | viability, T/C [2] [%] | viability, T/C [3] [%] | viability, T/C [4] [%] | viability, T/C [5] [%] | viability, T/C [6] [%] | viability, T/C [7] [%] | viability, T/C [8] [%] | viability, T/C [9] [%] | viability, T/C [10] [%] | viability, T/C [11] [%] | viability, T/C [12] [%] | viability, T/C [13] [%] | viability, T/C [14] [%] | viability, T/C [15] [%] | also measured
CC(C)n1c(=O)n(C)c2cnc3cc(F)c(-c4ccc(OCCCN5CCCCC5)nc4)cc3c21 + COc1cc2c(cc1O)CCNC21CSC2c3c(OC(C)=O)c(C)c4c(c3C(COC1=O)N1C(O)C3Cc5cc(C)c(OC)c(O)c5C(C21)N3C)OCO4 | < 31.6 | < 31.6 | < 31.6 | < 31.6 | < 31.6 | 14.8 | 30.2 | 13.3 | 14.8 | 11.2 | 5.34 | 12 | 9.68 | 5.43 | 6.03 | 6.79 | 4.33 | 3.13 | 2.75 | 1.61 | viability, T/C [16]: 1.81%; viability, T/C [17]: 1.68%; viability, T/C [18]: 1.23%; viability, T/C [19]: 0.2%; viability, T/C [20]: 0.2%; viability, T/C [21]: 0.19%; viability, T/C [22]: 0.63%; viability, T/C [23]: 0.35%; viability, T/C [24]: 0.15%; viability, T/C [25]: 0.18%; viability, T/C [26]: 0.19%; viability, T/C [27]: 0.17%; viability, T/C [28]: 0.12%; viability, T/C [29]: 0.12%; viability, T/C [30]: 0.23%
CC1COCCN1c1cc(-c2ccnn2C)c2ccnc(-c3ccn[nH]3)c2n1 (stereo not given) + COc1cc2c(cc1O)CCNC21CSC2c3c(OC(C)=O)c(C)c4c(c3C(COC1=O)N1C(O)C3Cc5cc(C)c(OC)c(O)c5C(C21)N3C)OCO4 | < 31.6 | < 31.6 | < 31.6 | < 31.6 | < 31.6 | 31.8 | 7.92 | 5.31 | 5.63 | 6.73 | 7.04 | 17.9 | 5 | 4.08 | 3.64 | 5.29 | 5.35 | 2.05 | 1.46 | 1.47 | viability, T/C [16]: 1.57%; viability, T/C [17]: 2.68%; viability, T/C [18]: 2.88%; viability, T/C [19]: 0.27%; viability, T/C [20]: 0.17%; viability, T/C [21]: 0.15%; viability, T/C [22]: 0.08%; viability, T/C [23]: 0.09%; viability, T/C [24]: 0.58%; viability, T/C [25]: 0.58%; viability, T/C [26]: 0.6%; viability, T/C [27]: 0.55%; viability, T/C [28]: 0.47%; viability, T/C [29]: 0.47%; viability, T/C [30]: 0.86%
COc1cc(C)[nH]c(=O)c1CN1CCc2c(Cl)cc(C(OC)C3COC3)c(Cl)c2C1=O (stereo not given) + COc1cc2c(cc1O)CCNC21CSC2c3c(OC(C)=O)c(C)c4c(c3C(COC1=O)N1C(O)C3Cc5cc(C)c(OC)c(O)c5C(C21)N3C)OCO4 | > 10000 | > 10000 | 362 | < 31.6 | < 31.6 | 104 | 104 | 100 | 99.2 | 86.5 | 92.5 | 98.4 | 93.9 | 98.7 | 95.1 | 87 | 74.2 | 68 | 48.1 | 60.5 | viability, T/C [16]: 40.5%; viability, T/C [17]: 30.2%; viability, T/C [18]: 23.1%; viability, T/C [19]: 0.53%; viability, T/C [20]: 0.46%; viability, T/C [21]: 1.6%; viability, T/C [22]: 0.35%; viability, T/C [23]: 0.31%; viability, T/C [24]: 0.31%; viability, T/C [25]: 0.35%; viability, T/C [26]: 0.38%; viability, T/C [27]: 0.36%; viability, T/C [28]: 0.31%; viability, T/C [29]: 0.29%; viability, T/C [30]: 0.35%
COc1ccc([C@@H](O)c2cc(-c3ncnc4cc(N5CCOCC5)ccc34)c(F)cc2Cl)nn1 + COc1cc2c(cc1O)CCNC21CSC2c3c(OC(C)=O)c(C)c4c(c3C(COC1=O)N1C(O)C3Cc5cc(C)c(OC)c(O)c5C(C21)N3C)OCO4 | 1490 | 889 | < 31.6 | < 31.6 | < 31.6 | 94.5 | 108 | 93.6 | 58.5 | 32.7 | 15.9 | 91 | 91.2 | 84.3 | 44.4 | 26.5 | 14.2 | 49.2 | 42.5 | 36.6 | viability, T/C [16]: 3.35%; viability, T/C [17]: 0.22%; viability, T/C [18]: 0.19%; viability, T/C [19]: 0.4%; viability, T/C [20]: 0.23%; viability, T/C [21]: 0.14%; viability, T/C [22]: 0.08%; viability, T/C [23]: 0.05%; viability, T/C [24]: 0.22%; viability, T/C [25]: 0.28%; viability, T/C [26]: 0.35%; viability, T/C [27]: 0.35%; viability, T/C [28]: 0.33%; viability, T/C [29]: 0.3%; viability, T/C [30]: 0.39%
Cc1cc(C)c(CNC(=O)c2cc(-c3ccc(CN4CCOCC4)cc3)cc3c2cnn3C2CCCC2)c(=O)[nH]1 + COc1cc2c(cc1O)CCNC21CSC2c3c(OC(C)=O)c(C)c4c(c3C(COC1=O)N1C(O)C3Cc5cc(C)c(OC)c(O)c5C(C21)N3C)OCO4 | > 10000 | > 10000 | < 31.6 | < 31.6 | < 31.6 | 81.9 | 97.4 | 97.5 | 102 | 85.7 | 61.4 | 84.3 | 87.3 | 92.9 | 88.2 | 81.9 | 64.3 | 44.9 | 40 | 59.9 | viability, T/C [16]: 39.5%; viability, T/C [17]: 34.4%; viability, T/C [18]: 25.5%; viability, T/C [19]: 0.31%; viability, T/C [20]: 0.35%; viability, T/C [21]: 0.34%; viability, T/C [22]: 0.33%; viability, T/C [23]: 0.21%; viability, T/C [24]: 0.26%; viability, T/C [25]: 0.3%; viability, T/C [26]: 0.32%; viability, T/C [27]: 0.3%; viability, T/C [28]: 0.25%; viability, T/C [29]: 0.25%; viability, T/C [30]: 0.26%
[2H]c1nc(C)nc([2H])c1-c1cc(NC[C@@H](C)c2cccc3c(C(=O)NC)ccnc23)ncn1 + COc1cc2c(cc1O)CCNC21CSC2c3c(OC(C)=O)c(C)c4c(c3C(COC1=O)N1C(O)C3Cc5cc(C)c(OC)c(O)c5C(C21)N3C)OCO4 | > 10000 | > 10000 | 72.7 | < 31.6 | < 31.6 | 91.2 | 106 | 100 | 101 | 90.8 | 92.1 | 89.7 | 90.1 | 92.3 | 91.5 | 83.1 | 82.5 | 51 | 54.6 | 43.2 | viability, T/C [16]: 40.4%; viability, T/C [17]: 50.2%; viability, T/C [18]: 41.5%; viability, T/C [19]: 0.44%; viability, T/C [20]: 0.45%; viability, T/C [21]: 1.41%; viability, T/C [22]: 0.35%; viability, T/C [23]: 0.23%; viability, T/C [24]: 0.31%; viability, T/C [25]: 0.18%; viability, T/C [26]: 0.2%; viability, T/C [27]: 0.14%; viability, T/C [28]: 0.12%; viability, T/C [29]: 0.13%; viability, T/C [30]: 0.25%
